Assay results published in BindingDB's records for doi:10.1016/s0960-894x(01)00014-2 (Rensselaer Polytechnic Institute, 2001).
pKi: −log10 of the molar value.

Experiment: Displacement of [3H]naltrindole from Opioid receptor delta 1 of guinea pig brain membranes

SMILES	pKi
C[C@H]1C2Cc3ccc(C(=O)O)cc3[C@@]1(C)CCN2CC1CC1 [(6S,11R)-3-Cyclopropylmethyl-6,11-dimethyl-1,2,3,4,5,6-hexahydro-2,6-methano-benzo[d]azocine-8-carboxylic acid]	6.49
C[C@H]1C2Cc3ccc(C#N)cc3[C@@]1(C)CCN2CC1CC1 [(6S,11R)-3-Cyclopropylmethyl-6,11-dimethyl-1,2,3,4,5,6-hexahydro-2,6-methano-benzo[d]azocine-8-carbonitrile]	5.57
C[C@H]1C2Cc3ccc(C(=O)Nc4ccccc4)cc3[C@@]1(C)CCN2CC1CC1 [3-cyclopropylmethyl-6,11-dimethyl-1,2,3,4,5,6-hexahydro-2,6-methano-benzo[d]azocine-8-carboxylic acid phenylamide]	5.85
C[C@H]1[C@H]2Cc3ccc(C(N)=O)cc3[C@@]1(C)CCN2CC1CC1 [(6S,11R)-3-Cyclopropylmethyl-6,11-dimethyl-1,2,3,4,5,6-hexahydro-2,6-methano-benzo[d]azocine-8-carboxylic acid amide]	8.59
C[C@@H]1[C@@H]2Cc3ccc(C(N)=O)cc3[C@]1(C)CCN2CC1CC1 [(6S,11R)-3-Cyclopropylmethyl-6,11-dimethyl-1,2,3,4,5,6-hexahydro-2,6-methano-benzo[d]azocine-8-carboxylic acid amide]	6.24
C[C@H]1C2Cc3ccc(C(=O)N(C)C)cc3[C@@]1(C)CCN2CC1CC1 [(6S,11R)-3-Cyclopropylmethyl-6,11-dimethyl-1,2,3,4,5,6-hexahydro-2,6-methano-benzo[d]azocine-8-carboxylic acid dimethylamide]	< 4.46
COC(=O)c1ccc2c(c1)[C@@]1(C)CCN(CC3CC3)C(C2)[C@@H]1C [(6S,11R)-3-Cyclopropylmethyl-6,11-dimethyl-1,2,3,4,5,6-hexahydro-2,6-methano-benzo[d]azocine-8-carboxylic acid methyl ester]	7.23
CNC(=O)c1ccc2c(c1)[C@@]1(C)CCN(CC3CC3)C(C2)[C@@H]1C [(6S,11R)-3-Cyclopropylmethyl-6,11-dimethyl-1,2,3,4,5,6-hexahydro-2,6-methano-benzo[d]azocine-8-carboxylic acid methylamide]	7.20
